Experimental data from patent publication US5153203A, “Quinolone derivatives and salts thereof, preparation processes thereof, and antibacterial agents containing the same” (Wakunaga Seiyaku Kabushiki Kaisha, priority 1989, dated 1992).
In brackets after ≈: the same amount, converted by molar mass.

Tests used:
[1] = test system: E. coli NIH JC-2 (IFO 12734); assay: Minimum inhibitory concentration (MIC), standard method of the Japan Society of Chemotherapy; assay type: cell-based; settings: Escherichia coli, IFO12734
Description: (§1) With respect to certain representative compounds among the compounds [I] of the present invention, their minimum inhibitory concentrations (MIC; μg/ml) were measured in accordance with the standard method established by the Japan Society of Chemotherapy [CHEMOTHERAPY, 29(1), 76-79 (1981]. The results are summarized in Table 1, in which the compound numbers are as shown in examples.

[2] = test system: P. aeruginosa (IFO 3445); assay: as above; assay type: cell-based; settings: Pseudomonas aeruginosa, IFO3445
Description: as §1

[3] = test system: S. aureus 209 P (IFO 12732); assay: as above; assay type: cell-based; settings: Staphylococcus aureus, IFO12732
Description: as §1

[4] = Partition coefficient, phosphate buffer/n-octanol; assay type: physicochemical; settings: 50 mM phosphate buffer (pH 7.4, μ=0.15)/n-octanol
Description: Following the method proposed by Akira Tsuji et al. in Antimicrob. Agents Chemother., 32. 190-194 (1988), 50 mM phosphate buffer (pH 7.4, μ=0.15)/n-octanol partition coefficients were measured.

Row | SMILES | MIC [1] [µg/mL] | MIC [2] [µg/mL] | MIC [3] [µg/mL] | logD [4]
1 | O=C(O)c1cn(C2CC2)c2c(F)c(N3CCOC3)c(F)c(F)c2c1=O [Compound 72, 1-Cyclopropyl-5,6,8-trifluoro-7-(3-oxazolidinyl)-1,4-dihydro-4-oxoquinoline-3-carboxylic acid] | 0.39 (≈ 1.1 µM) | 3.13 (≈ 8.83 µM) | 0.2 (≈ 0.565 µM) | –
2 | O=C(O)c1cn(C2CC2)c2c(F)c(N3COC(CO)C3)c(F)cc2c1=O (centres unmarked) [Compound 74, 1-Cyclopropyl-6,8-difluoro-7-(5-hydroxymethyl-3-oxazolidinyl)-1,4-dihydro-4-oxoquinoline-3-carboxylic acid] | 0.1 (≈ 0.273 µM) | 0.78 (≈ 2.13 µM) | 0.1 (≈ 0.273 µM) | –
3 | CN(C)CC1CN(c2cc3c(cc2F)c(=O)c(C(=O)O)cn3C2CC2)CO1 (centres unmarked) [Compound 60] | 0.2 (≈ 0.533 µM) | 1.56 (≈ 4.16 µM) | 0.2 (≈ 0.533 µM) | –
4 | Cl.O=C(O)c1cn(C2CC2)c2cc(OC3CCNC3)c(F)cc2c1=O (centres unmarked) [Compound 1, 7-(3-Pyrrolidinyloxy)-1-cyclopropyl-6-fluoro-1,4-dihydro-4-oxoquinoline-3-carboxylic acid hydrochloride] | 0.39 | 3.13 | 3.13 | –
5 | O=C(O)c1cn(C2CC2)c2c(F)c(N3CCCOC3)c(F)cc2c1=O [Compound 76, Cyclopropyl-6,8-difluoro-7-(tetrahydro-1,3-oxazin)-3-yl-1,4-dihydro-4-oxoquinoline-3-carboxylic acid] | 0.39 (≈ 1.11 µM) | 3.13 (≈ 8.93 µM) | 0.39 (≈ 1.11 µM) | –
6 | CC1COc2c(OC3CCN(C)CC3)c(F)cc3c(=O)c(C(=O)O)cn1c23 (centres unmarked) [Compound 12, 10-(1-Methyl-4-piperidyloxy)-9-fluoro-2,3-dihydro-3-methyl-7-oxo-7H-pyrido[1,2,3-de][1,4]-benzoxazine-6-carboxylic acid] | 1.56 (≈ 4.14 µM) | 12.5 (≈ 33.2 µM) | 1.56 (≈ 4.14 µM) | –
7 | Cl.Nc1c(F)c(OC2CCNC2)c(F)c2c1c(=O)c(C(=O)O)cn2C1CC1 (centres unmarked) [Compound 8, 7-(3-Pyrrolidinyloxy)-1-cyclopropyl-5-amino-6,8-difluoro-1,4-dihydro-4-oxoquinoline-3-carboxylic acid hydrochloride] | 0.1 | 0.78 | 0.39 | –
8 | Nc1c(F)c(OC2CCNCC2)c(F)c2c1c(=O)c(C(=O)O)cn2C1CC1 [Compound 19] | – | – | – | -0.693
9 | CN(C)CC1CN(c2c(F)cc3c(=O)c(C(=O)O)cn(C4CC4)c3c2F)CO1 (centres unmarked) [Compound 69] | 0.2 (≈ 0.508 µM) | 1.56 (≈ 3.97 µM) | 0.2 (≈ 0.508 µM) | –
10 | Cl.O=C(O)c1cn(C2CC2)c2c(F)c(OC3CCNC3)c(F)cc2c1=O (centres unmarked) [Compound 2, 7-(3-Pyrrolidinyloxy)-1-cyclopropyl-6,8-difluoro-1,4-dihydro-4-oxoquinoline-3-carboxylic acid hydrochloride] | 0.2 | 0.78 | 0.78 | –
11 | CC1CN(c2c(F)cc3c(=O)c(C(=O)O)cn(C4CC4)c3c2F)CO1 (centres unmarked) [Compound 67] | 0.2 (≈ 0.571 µM) | 0.78 (≈ 2.23 µM) | 0.1 (≈ 0.285 µM) | –
12 | O=C(O)c1cn(C2CC2)c2cc(N3CCOC3)c(F)cc2c1=O [Compound 57, 1-Cyclopropyl-6-fluoro-7-(3-oxazolidinyl)-1,4-dihydro-4-oxoquinoline-3-carboxylic acid] | 0.2 (≈ 0.628 µM) | 0.78 (≈ 2.45 µM) | 0.1 (≈ 0.314 µM) | –
13 | CC1COc2c(OC3CCNC3)c(F)cc3c(=O)c(C(=O)O)cn1c23.Cl (centres unmarked) [Compound 9, 10-(3-Pyrrolidinyloxy)-9-fluoro-2,3-dihydro-3-methyl-7-oxo-7H-pyrido[1,2,3-de][1,4]-benzoxazine-6-carboxylic acid hydrochloride] | 1.25 | 25 | 1.56 | –
14 | CC1CN(c2cc3c(cc2F)c(=O)c(C(=O)O)cn3C2CC2)CO1 (centres unmarked) [Compound 59] | 0.2 (≈ 0.602 µM) | 0.78 (≈ 2.35 µM) | 0.1 (≈ 0.301 µM) | –
15 | CC1COCN1c1c(F)cc2c(=O)c(C(=O)O)cn(C3CC3)c2c1F (centres unmarked) [Compound 68] | 0.78 (≈ 2.23 µM) | 3.13 (≈ 8.93 µM) | 0.2 (≈ 0.571 µM) | –
16 | CCn1cc(C(=O)O)c(=O)c2cc(F)c(N3CCOC3)cc21 [Compound 58] | 0.78 (≈ 2.55 µM) | 6.25 (≈ 20.4 µM) | 0.39 (≈ 1.27 µM) | –
17 | CCOC(=O)c1cn(C2CC2)c2c(F)c(N3COC(CN(C)C)C3)c(F)cc2c1=O (centres unmarked) [Compound 64] | – | – | – | -0.316
18 | Cl.O=C(O)c1cn(-c2ccc(F)cc2F)c2nc(OC3CCNC3)c(F)cc2c1=O (centres unmarked) [Compound 10, 7-(3-Pyrrolidinyloxy)-1-(2,4-difluorophenyl)-6-fluoro-1,4-dihydro-4-oxo-1,8-naphthyridine-3-carboxylic acid hydrochloride] | 0.78 | 3.13 | 1.56 | –
19 | CCn1cc(C(=O)O)c(=O)c2cc(F)c(OC3CCN(C)CC3)cc21 [Compound 11, 7-(1-Methyl-4-piperidyloxy)-1-ethyl-6-fluoro-1,4-dihydro-4-oxoquinoline-3-carboxylic acid] | 0.78 (≈ 2.24 µM) | 12.5 (≈ 35.9 µM) | 1.56 (≈ 4.48 µM) | –
20 | O=C(O)c1cn(C2CC2)c2c(F)c(N3CCOC3)c(F)cc2c1=O [Compound 66, 1-Cyclopropyl-6,8-difluoro-7-(3-oxazolidinyl)-1,4-dihydro-4-oxoquinoline-3-carboxylic acid] | 0.2 (≈ 0.595 µM) | 1.56 (≈ 4.64 µM) | 0.2 (≈ 0.595 µM) | –
